Measurements as given in patent US4567192A, “Acylaminophenol derivatives” (Sandoz Ltd., priority 1983, dated 1986).

How the values were obtained:
[1] = Test I: arthritis pain test (method of A. W. Pircio et al.); assay type: in vivo; conditions: po
Excerpt: (I) The arthritis pain test (based on the method of A. W. Pircio et al., Eur. J. Pharmacol. 31, 207-215, 1975); and
(§1) As previously indicated, required daily dosages will depend inter al. on the particular compound of the invention employed. Results obtained for the compounds (L)-(4-acetamido-phenyl)-2-oxo-thiazolidine-4-carboxylate (compound A) in accordance with the present invention and the known analgesic paracetamol (compound B) in tests I and II above are shown in the following table.

inflamed rat hind-paw = test: Test II: Randall-Selitto Test on the inflamed rat hind-paw; assay type: in vivo; conditions: po
Excerpt: (II) The Randall-Selitto Test on the inflamed rat hind-paw (Arch. Int. Pharmacodyn. 61, 409-419, 1957).
as §1

[2] = system: GOT (Glutamate-Oxalacetate-Transaminase); test: Hepatoxicity: GOT (Glutamate-Oxalacetate-Transaminase) level in mouse serum; assay type: in vivo
Description: (§2) Thus on administration of 1'000 mg/kg p.o. of COMPOUND A in accordance with the invention to mice, no increase in GOT and GPT levels over levels in untreated controls (40 to 80 units/liter) is observed and no deaths are recorded. In contrast on administration of compound B (paracetamol) at a dosage of 560 mg/kg p.o., GOT levels are elevated to 3'800 units/liter and GPT levels are elevated to 3'000 units and on administration of compound B at a dosage of 1'000 mg/kg p.o., death of 2 out of 5 test animals is recorded.

[3] = system: GPT (Glutamate-Pyruvate-Transaminase); test: Hepatoxicity: GPT (Glutamate-Pyruvate-Transaminase) level in mouse serum; assay type: in vivo
Description: as §2

[4] = Deaths after oral administration to mice; assay type: in vivo, mouse; conditions: 1'000 mg/kg p.o.
[5] = high dosages, cited from earlier work
[6] = mice, 1'000 mg/kg p.o., untreated controls 40 to 80 units/liter

`CC(=O)Nc1ccc(OC(=O)[C@@H]2CSC(=O)N2)cc1` [COMPOUND A, (L)-(4-acetamido-phenyl)-2-oxo-thiazolidine-4-carboxylate] gave an ED50 ([1]; 1 hr.) of about 162 mg/kg, an ED50 ([1]; 3 hrs.) of 162 mg/kg and an ED50 ([1]; 5 hrs.) of 264 mg/kg. The ED50 (inflamed rat hind-paw) was 310 mg/kg, the “increase in GOT levels over levels in untreated controls” value [2, 6] was “no increase” and the “increase in GPT levels over levels in untreated controls” value [3, 6] was “no increase”. For the same molecule, the deaths [4] was “no deaths”.
With `CC(=O)Nc1ccc(O)cc1` [COMPOUND B, N-(4-hydroxyphenyl)acetamide] the ED50 ([1]; 1 hr.) was 75 mg/kg, the ED50 ([1]; 3 hrs.) was 142 mg/kg and the ED50 ([1]; 5 hrs.) was 261 mg/kg. For the same molecule, the ED50 (inflamed rat hind-paw) was 203 mg/kg, the GOT levels ([2]; mouse, in vivo, po, 560 mg/kg) was 3'800 units/liter and the GPT levels ([3]; mouse, in vivo, po, 560 mg/kg) was 3'000 units. For the same molecule, the “death of test animals” value [4] was 2 out of 5, the death ([5]; following liver damage) was “may lead to death” and the “damage of the liver” value [5] was “extensive damage of the liver”.
